Measurements as given in US20240041042A1, “1-(PYRIDYL)-5-AZINYLPYRAZOLE DERIVATIVES, AND THEIR USE FOR CONTROL OF UNDESIRED PLANT GROWTH” (Bayer Aktiengesellschaft, priority 2020, published 2024).
Read-outs that look alike come from different tables or passages of the source.

Columns and labels:
Format in all cases: in vivo
[1] = system: Pharbitis purpurea (PHBPU); experiment: Post-emergence herbicidal action against PHBPU
Description: (§1) Seeds of monocotyledonous and dicotyledonous weeds and crop plants are placed in sandy loam in plastic or organic planting pots, covered with soil and cultivated in a greenhouse under controlled growth conditions. 2 to 3 weeks after sowing, the test plants are treated at the one-leaf stage. The compounds of the invention, formulated in the form of wettable powders (WP) or as emulsion concentrates (EC), are then sprayed onto the green parts of the plants as aqueous suspension or emulsion with addition of 0.5% additive at a water application rate of 600 l/ha (converted). After the test plants have been kept in the greenhouse under optimum growth conditions for about 3 weeks, the activity of the preparations is rated visually in comparison to untreated controls. For example, 100% activity=the plants have died, 0% activity=like control plants.
(§2) Tables B1 to B13 below show the effects of selected compounds of the general formula (I) according to Table 1 on various harmful plants and at an application rate corresponding to 320 g/ha or lower, which were obtained by the experimental procedure mentioned above. The appendices “a”, “b” and “c” give differentiation by dosage used with otherwise the same harmful plants tested.

Oryza sativa (ORYSA) = settings: crop plant compatibility
Description: as §1
(§3) The observed effects on selected crop plants are reported here in comparison to the untreated controls (values in %). The appendices “a”, “b” and “c” give differentiation by dosage used with otherwise the same crop plants tested.

Zea mays (ZEAMX) = settings: for Post-emergence action against ZEAMX in %: crop plant compatibility, effect vs untreated controls
Description: as §1, §3

Setaria viridis (SETVI) [2] = experiment: Pre-emergence herbicidal action against SETVI
Excerpt: (§4) Seeds of monocotyledonous and dicotyledonous weed plants and crop plants are placed in plastic or organic planting pots and covered with soil. The compounds of the invention, formulated in the form of wettable powders (WP) or as emulsion concentrates (EC), are then applied to the surface of the covering soil as aqueous suspension or emulsion with addition of 0.5% additive at a water application rate equivalent to 600 l/ha. After the treatment, the pots are placed in a greenhouse and kept under good growth conditions for the trial plants. After about 3 weeks, the effect of the preparations is scored visually in comparison with untreated controls as percentages. For example, 100% activity=the plants have died, 0% activity=like control plants.
(§5) Tables A1 to A13 below show the effects of selected compounds of the general formula (I) on various harmful plants and at an application rate corresponding to 320 g/ha or lower, which were obtained by the experimental procedure mentioned above. The appendices “a”, “b” and “c” give differentiation by dosage used with otherwise the same harmful plants tested.

[3] = system: Abutilon theophrasti (ABUTH); experiment: Post-emergence herbicidal action against ABUTH; settings: 320 g/ha, visual rating about 3 weeks after treatment vs untreated controls (100% = plants have died, 0% = like control plants)
Description: as §1, §2

Avena fatua (AVEFA) [4] = experiment: Post-emergence herbicidal action against AVEFA; settings: visual rating about 3 weeks after treatment
Description: as §1, §2

Lolium rigidum (LOLRI) [5] = experiment: Post-emergence herbicidal action against LOLRI
Description: as §1, §2

Viola tricolor (VIOTR) [6] = experiment: Pre-emergence herbicidal action against VIOTR
Excerpt: as §4, §5

[7] = system: Alopecurus myosuroides (ALOMY); experiment: Pre-emergence herbicidal action against ALOMY; settings: scored visually after about 3 weeks, 100% = plants have died
Excerpt: as §4, §5

[8] = system: Polygonum convolvulus (POLCO); experiment: Pre-emergence herbicidal action against POLCO
Excerpt: as §4, §5

Viola tricolor (VIOTR) [9] = experiment: Post-emergence herbicidal action against VIOTR
Description: as §1, §2

[10] = system: Verconica persica (VERPE); experiment: Post-emergence herbicidal action against VERPE
Description: as §1, §2

[11] = system: Matricaria inodora (MATIN); experiment: Pre-emergence herbicidal action against MATIN
Excerpt: as §4, §5

Avena fatua (AVEFA) [12] = experiment: Pre-emergence herbicidal action against AVEFA; settings: visual scoring after about 3 weeks vs untreated controls
Excerpt: as §4, §5

[13] = system: Echinochloa crus-galli (ECHCG); experiment: Post-emergence herbicidal action against ECHCG
Description: as §1, §2

[14] = system: Polygonum convolvulus (POLCO); experiment: Post-emergence herbicidal action against POLCO; settings: dosage 320 g/ha
Description: as §1, §2

[15] = system: Amaranthus retroflexus (AMARE); experiment: Pre-emergence herbicidal action against AMARE; settings: visual scoring after about 3 weeks vs untreated controls
Excerpt: as §4, §5

[16] = system: Amaranthus retroflexus (AMARE); experiment: Post-emergence herbicidal action against AMARE
Description: as §1, §2

Setaria viridis (SETVI) [17] = experiment: Post-emergence herbicidal action against SETVI; settings: dosage 320 g/ha
Description: as §1, §2

[18] = system: Echinochloa crus-galli (ECHCG); experiment: Pre-emergence herbicidal action against ECHCG; settings: dosage 320 g/ha
Excerpt: as §4, §5

[19] = system: Alopecurus myosuroides (ALOMY); experiment: Post-emergence herbicidal action against ALOMY; settings: visual rating about 3 weeks after treatment vs untreated controls (100% = plants have died, 0% = like control plants)
Description: as §1, §2

Lolium rigidum (LOLRI) [20] = experiment: Pre-emergence herbicidal action against LOLRI
Excerpt: as §4, §5

[21] = system: Verconica persica (VERPE); experiment: Pre-emergence herbicidal action against VERPE
Excerpt: as §4, §5

[22] = 80 g/ha, effect in comparison to untreated controls

Row | Post-emergence action against ORYSA in % (Oryza sativa (ORYSA); [22]) [%] | Post-emergence action against ZEAMX in % (Zea mays (ZEAMX); 80 g/ha) [%] | Compound | Post-emergence action against PHBPU in % ([1]; dosage 320 g/ha) [%] | Pre-emergence action against SETVI in % (Setaria viridis (SETVI) [2]; dosage 320 g/ha) [%] | Post-emergence action against ABUTH in % [3] [%] | Post-emergence action against AVEFA in % (Avena fatua (AVEFA) [4]; 320 g/ha) [%] | Post-emergence action against LOLRI in % (Lolium rigidum (LOLRI) [5]; dosage 320 g/ha) [%] | Pre-emergence action against VIOTR in % (Viola tricolor (VIOTR) [6]; 320 g/ha, Viola tricolor) [%] | Pre-emergence action against ALOMY ([7]; 320 g/ha) [%] | Pre-emergence action against POLCO in % ([8]; dosage 320 g/ha) [%] | Post-emergence action against VIOTR in % (Viola tricolor (VIOTR) [9]; 320 g/ha) [%] | Post-emergence action against VERPE in % ([10]; 320 g/ha, VERPE) [%] | Pre-emergence action against MATIN in % ([11]; dosage 320 g/ha) [%] | Pre-emergence action against AVEFA in % (Avena fatua (AVEFA) [12]; 320 g/ha) [%] | Post-emergence action against ECHCG in % ([13]; dosage 320 g/ha) [%] | Post-emergence action against POLCO in % [14] [%] | Pre-emergence action against AMARE in % ([15]; 80 g/ha) [%] | Pre-emergence action against AMARE in % ([15]; 320 g/ha) [%] | Pre-emergence action against ECHCG in % [18] [%] | Pre-emergence action against LOLRI in % (Lolium rigidum (LOLRI) [20]; dosage 320 g/ha) [%] | other results
1 | 0 | 0 | CCOC(=O)[C@@H](C)Oc1nn(-c2ncccc2F)c(-c2ccc(F)nc2)c1F [Example I-320] | 80 | 90 | 80 | 80 | 90 | 100 | 90 | 90 | 80 | 90 | 80 | 90 | 90 | 80 | 80 | 90 | 90 | 100 | Post-emergence action against ZEAMX in % (Zea mays (ZEAMX); 320 g/ha): 20%; Post-emergence action against AMARE in % ([16]; 80 g/ha, visual rating about 3 weeks after treatment vs untreated controls (100% = plants have died, 0% = like control plants)): 80%; Post-emergence action against AMARE in % ([16]; 320 g/ha, visual rating about 3 weeks after treatment): 80%; Post-emergence action against SETVI in % (Setaria viridis (SETVI) [17]): 90%; Post-emergence action against ALOMY in % ([19]; 320 g/ha): 100%
2 | 20 | 10 | COCCOCCOC(=O)[C@@H](C)Oc1nn(-c2ncccc2F)c(-c2ccc(F)nc2)c1Br [Example I-34] |  | 100 |  |  |  | 100 | 100 | 90 |  |  | 90 | 90 |  |  | 100 | 100 | 100 | 100 | Post-emergence action against PHBPU in % ([1]; dosage 80 g/ha): 80%; Post-emergence action against ORYSA in % (Oryza sativa (ORYSA); 20 g/ha, effect vs untreated controls): 10%; Post-emergence action against ZEAMX in % (crop plant compatibility) (Zea mays (ZEAMX); 20 g/ha, ZEAMX, effect in comparison to untreated controls): 10%; Pre-emergence action against SETVI in % (Setaria viridis (SETVI) [2]; dosage 80 g/ha): 90%; Post-emergence action against AVEFA in % (Avena fatua (AVEFA) [4]; 80 g/ha): 90%; Post-emergence action against LOLRI in % (Lolium rigidum (LOLRI) [5]; dosage 80 g/ha): 80%; Pre-emergence action against VERPE in % ([21]; dosage 80 g/ha): 90%; Pre-emergence action against VERPE in % ([21]; dosage 320 g/ha): 100%; Pre-emergence action against VIOTR in % (Viola tricolor (VIOTR) [6]; dosage 80 g/ha): 100%; Pre-emergence action against ALOMY ([7]; 80 g/ha): 90%; Pre-emergence action against POLCO in % ([8]; dosage 80 g/ha): 80%; Post-emergence action against VERPE in % ([10]; dosage 80 g/ha): 90%; Pre-emergence action against AVEFA in % (Avena fatua (AVEFA) [12]; 80 g/ha): 80%; Post-emergence action against ALOMY in % ([19]; 80 g/ha): 90%; Pre-emergence action against LOLRI in % (Lolium rigidum (LOLRI) [20]; dosage 80 g/ha): 90%
3 | 20 | 10 | C[C@@H](Oc1nn(-c2nc(F)ccc2F)c(-c2ccc(F)nc2)c1Cl)C(=O)O [Example I-311] | 90 | 100 | 80 | 80 | 80 | 100 | 90 | 90 | 80 | 90 | 90 | 90 | 90 | 80 | 80 | 90 | 100 | 90 | Pre-emergence action against VERPE in % ([21]; dosage 80 g/ha): 80%; Pre-emergence action against VERPE in % ([21]; dosage 320 g/ha): 90%; Pre-emergence action against VIOTR in % (Viola tricolor (VIOTR) [6]; dosage 80 g/ha): 90%; Pre-emergence action against ALOMY ([7]; 80 g/ha): 80%; Pre-emergence action against POLCO in % ([8]; dosage 80 g/ha): 80%; Post-emergence action against VIOTR in % (Viola tricolor (VIOTR) [9]; 80 g/ha): 80%; Pre-emergence action against MATIN in % ([11]; dosage 80 g/ha): 80%; Post-emergence action against ECHCG in % ([13]; dosage 80 g/ha): 80%; Post-emergence action against SETVI in % (Setaria viridis (SETVI) [17]): 80%; Post-emergence action against ALOMY in % ([19]; 80 g/ha): 80%; Post-emergence action against ALOMY in % ([19]; 320 g/ha): 90%; Pre-emergence action against LOLRI in % (Lolium rigidum (LOLRI) [20]; dosage 80 g/ha): 90%
